{"source": "patent US12138336B2", "about": "“Personal care composition comprising water insoluble solid organic compound” (The Procter & Gamble Company, priority 2018, dated 2024)", "key": {"[1]": {"assay": "Water solubility at 25° C.", "assay_type": "physicochemical", "conditions": "for solubility: water, 25 °C"}, "[2]": {"conditions": "known property; cited from earlier work"}, "[3]": {"assay": "Crystals of the solid organic compound present in the composition at 25° C. or not", "assay_type": "physicochemical", "conditions": "added dissolved in ethanol/water mixture; cationic surfactant and high melting point fatty compounds; especially at higher amount"}, "[4]": {"assay": "Di-electric constant, BI-870 Liquid Dielectric Constant Meter", "assay_type": "physicochemical", "conditions": "third liquid compounds; room temperature (23.1-23.4° C.)", "description": "Dielectric constant is measured at room temperature (23.1 ˜23.4° C.) using BI-870 Liquid Dielectric Constant Meter (Brookhaven Instruments, Corp., New York)."}, "[5]": {"conditions": "first liquid oily compounds, read-out: Solubility in H2O"}, "[6]": {"conditions": "solid organic compounds, 25° C."}, "[7]": {"conditions": "third liquid compounds, read-out: Solubility in H2O"}}, "note": "Read-outs that look alike come from different tables or passages of the source."}
{"smiles": "CCCCCCC(C=O)=Cc1ccccc1", "note": "[Hexyl Cinnamic Aldehyde]", "values": [{"measurement": "solubility", "setting": "[1]; [5]", "result": 2.75, "unit": "µg/mL"}]}
{"smiles": "Cc1cc(CC(C)CC(C)(C)C)n(O)c(=O)c1.NCCO", "note": "(stereo not shown) [Piroctone Olamine]", "values": [{"measurement": "Water Solubility", "setting": "[1]; [6]", "result": 30, "unit": "µg/mL"}, {"measurement": "Solubility in water, in words", "setting": "[2]", "result": "very limited solubility in water"}, {"measurement": "Crystal formation in aqueous hair conditioning compositions", "setting": "[3]", "result": "forms crystals"}]}
{"smiles": "C=CC(C)CCCC(C)(C)O", "note": "(stereo not shown) [Dihydro Myrcenol]", "values": [{"measurement": "Solubility in H2O", "setting": "[1]; first liquid oily compounds", "result": "Negligible (lower than 0.1) g/L"}]}
{"smiles": "Cc1cc(C2CCCCC2)n(O)c(=O)c1", "note": "[Ciclopirox, reference compound]", "values": [{"measurement": "Water Solubility", "setting": "[1]; [6]", "result": 1410, "unit": "µg/mL"}]}
{"smiles": "OCc1ccccc1", "note": "[Benzyl Alcohol]", "values": [{"measurement": "solubility", "setting": "[1]; [7]", "result": 43000, "unit": "µg/mL"}, {"measurement": "Di-electric constant", "setting": "[4]", "result": 13.69}]}
{"smiles": "OCCOc1ccccc1", "note": "[Phenoxyethanol]", "values": [{"measurement": "solubility", "setting": "[1]; [7]", "result": 26000, "unit": "µg/mL"}]}
{"smiles": "Cc1cc(CC(C)CC(C)(C)C)n(O)c(=O)c1", "note": "(stereo not shown) [Piroctone, reference compound]", "values": [{"measurement": "solubility", "setting": "[1]; solid organic compounds, 25° C., read-out: Water Solubility", "result": 240, "unit": "µg/mL"}]}
{"smiles": "Cc1cc(C2CCCCC2)n(O)c(=O)c1", "note": "[Ciclopirox Olamine, reference compound]", "values": [{"measurement": "Water Solubility", "setting": "[1]; [6]", "result": 4450, "unit": "µg/mL"}]}
{"smiles": "CCCCCCCCCCCC(=O)N(C)CC(=O)OC(C)C", "note": "[Isoropyl N-Lauroyl Sarcosinate]", "values": [{"measurement": "Solubility in H2O", "setting": "[1]; first liquid oily compounds", "result": "Negligible (lower than 0.1) g/L"}]}
{"smiles": "CCCCCC1C(=O)CCC1CC(=O)OC", "note": "(stereo not shown) [Methyl Dihydro Jasmonate]", "values": [{"measurement": "solubility", "setting": "[1]; [5]", "result": 91.7, "unit": "µg/mL"}]}
